Reference: patent EP0096006A2, “3-(Ureidocyclohexylamino)-propane-1,2-diol derivatives, process for their preparation, pharmaceutical preparations containing these compounds and their therapeutical use” (CIBA-GEIGY AG, priority 1982, dated 1983)

What was measured:
normotensiven Kaninchen = test: Intraocular pressure reduction in normotensive rabbits, topical application (anti-glaucoma effect); format: in vivo
Protocol: Die Anticlaucoma-Wirkung der erfindungsgemässen Verbindungen ist an der intraokularen Druckverminderung abzulesen, die an Säugetieren, z.B. bei normotensiven Kaninchen, im wesentlichen nach der von D.E. Potter und J.M. Rowland in Experimental Eye Research 27, 615-625, (1978) beschriebenen Methodik nachgewiesen werden kann. Die intraokulare Druckverminderung wird wie folgt bestimmt: 2 x 50 µl einer Lösung der Testverbindung in sterilisiertem Wasser von unterschiedlicher Konzentration werden bei männlichen, neuseeländischen Albinokaninchen, die 3-4 kg wiegen, jeweils auf ein Auge appliziert, und 2 x 50 µl des Trägermaterials werden zur Kontrolle auf das kontralaterale Auge appliziert. Der intraokulare Druck (in mm Hg) in jedem Auge wird direkt vor der Behandlung tonometrisch gemessen, und dann 1,2 bzw. 3 Stunden nach der Verabreichung. Es wird der Unterschied des intraokularen Druckes zwischen behandeltem Auge und Kontrollauge bestimmt.
Beispielsweise zeigen die erfindungsgemässen Verbindungen der Beispiele 1 und 2a, bei einer Konzentration von etwa 20 bzw.

[1] = molecular target: β-adrenergischen Rezeptoren; test: β-receptor binding test in vitro: inhibition of 3H-dihydroalprenolol binding to brain membrane preparation; parameters: species or system Kalb; conditions: calf brain caudate membranes; 10 min at 37°C; determined graphically; read-out: IC50 (Hemmung der spezifischen Bindung von 1,0 nM 3H-Dihydroalprenolol)
Source text: Die β-adrenergische Rezeptorbindungseigenschaften, welche β-adrenergische regulierende, z.B. blockierende Wirkung der genannten neuen Verbindungen anzeigen, werden in einem Test der β-Rezeptorbindung in vitro nach einer Modifikation des Verfahrens bestimmt, wie es in Life Sciences 17, 993 (1975) beschrieben ist.
^3H-Dihydroalprenolol wird spezifisch von Gehirnmembran-Präparaten gebunden und diese Wirkung wird durch bekannte Agonisten und Antagonisten von β-adrenergischen Rezeptoren gehemmt.
Beim Bindungstest werden 2 ml-Proben der Suspension eines Membranpräparates (welches etwa 20 mg Kalbshirn-Caudaten entspricht) in eisgekühlte Reagenzgläser gegeben, welche ^3H-Dihydroalprenolol mit oder ohne Testverbindung, frisch gelöst in 0,1% Ascorbinsäure, enthalten. Die Endkonzentration von ^3H-Dihydroalprenolol ist 1,0 nM. Die Testverbindungen werden innerhalb einer weiten Konzentrationsreihe geprüft. Die Reagenzgläser werden 10 Minuten bei 37°C inkubiert, und die Suspensionen dann sofort unter Vakuum durch Fiberglasfilter filtriert. Die Filter werden mit 15 ml kalter 50 mM Tris-HCi (pH 7,9 bei 25°C) gewaschen, zusammen mit 12 ml Szintillationslösung in Szintillationsampullen gegeben, zunächst 90 Minuten geschüttelt und dann mit dem Zählrohr auf Radioaktivität untersucht.
Die IC50 Werte (welche die Konzentration der Testverbindungen angeben, die nötig ist, um die spezifische Bindung der 1,0 nM ^3H-Dihydrcal- prenolol-Lösung um 50% zu verringern) werden graphisch bestimmt.
Die erfindungsgemässen Verbindungen hemmen die β-Rezeptorbildung des Dihydroalprenolols mit IC50 Werten von […] oder darunter. Beispielsweise weisen die Verbindungen der Beispiele 1, 2a, 3b und 3c IC50-Werte von etwa […] auf.

[2] = tested on: renal hypertensiven Hunden; test: Arterial pressure and heart rate in conscious renal hypertensive dogs, oral dosing; format: in vivo, Hunde; conditions: oral dose 10 mg/kg
Source text: Die antihypertensive und bradycardische Wirkung wird ebenso an wachen, chronisch hypertensiven Hunden untersucht; die Hypertension wird dabei durch eine Schwächung der Nierenfunktion erzeugt. Der arterielle Druck wird durch direkte perkutane Punktion der femuralen Arterie, unter Verwendung einer Nadel, die an ein Uebertragungsinstrument angeschlossen ist, registriert. Nach der Aufnahme von Kontrolldaten werden die Hunde oral einmal täglich, 4 Tage lang, mit Kapseln, welche die Testverbindung enthalten, behandelt. Der Blutdruck und die Herzfrequenz werden jeweils 1,5, 3, 6 und 24 Stunden nach der täglichen Dosis bestimmt und die Ergebnisse mit den vor der Behandlung erhaltenen Kontrollwerten verglichen.

[3] = tested on: spontan hypertensiven Ratten; test: Systolic blood pressure and heart rate in conscious spontaneously hypertensive rats (tail sphygmomanometry), oral dosing; format: in vivo; conditions: for Abnahme des Bludrucks: second day, 2 hours after dosing; for antihypertensive Wirkung / bradycardische (d.h. die Herzfrequenz herabsetzende) Wirkung: low doses of 10 mg/kg or below
Source text: Die in vivo blutdrucksenkende Wirkung wird entweder direkt mit einem Katheter, der z.B. in die fumurale Arterie eines Hundes eingeführt ist, oder indirekt durch Sphygmomanometrie am Rattenschwanz, und einem Uebertragungsinstrument registriert. Der Bludruck wird vor und nach der Verabreichung des Wirkstoffes in mmHg bestimmt.
So kann die antihypertensive Wirkung und die Reduktion der Herzfrequenz bei spontan hypertensiven Ratten nachgewiesen werden, indem man indirekt durch Sphygmomanometrie am Rattenschwanz den systolischen Druck misst. Wache Ratten werden einzeln in Käfige gesperrt, welche sich in einem angenehm warmen Raum befinden. Nachdem Kontrollwerte für Blutdruck und Herzfrequenz gemessen words-n sind, werden die Testverbindungen oral einmal täglich an 2 oder 4 aufeinanderfolgenden Tagen verabreicht. Der Blutdruck wird gewöhnlich 24 Stunden nach der ersten Dosis und dann jeweils 2,0, 4,0 und 24 Stunden nach jeder täglichen Dosis bestimmt, und die Wirkung mit der bei solchen Ratten verglichen, die mit dem Trägermaterial behandelt worden sind.
Gemäss der vorher beschriebenen Methode werden wache Ratten einzeln in Käfige gestellt. Zuerst werden die Kontrollwerte des Blutdrucks ermittelt und dann die einzelnen Testverbindungen einmal täglich, an zwei aufeinanderfolgenden Tagen, oral verabreicht.

[4] = 50 mg/kg p.o. once daily for 2 days

| SMILES | IC50 [1] [nM] | Abnahme des Bludrucks [3, 4] [mm Hg] | antihypertensive Wirkung [3] | bradycardische (d.h. die Herzfrequenz herabsetzende) Wirkung [3] | also measured |
| --- | --- | --- | --- | --- | --- |
| C=CCOc1ccccc1OCC(O)CN[C@H]1CC[C@@H](N2CCNC2=O)CC1 (mixture of isomers) [Beispiel 1, cis-1-(4-[3-(o-Allyloxyphenoxy)-2-hydroxypropylamino]-cyclohexyl)-2-imidazolidinon-hemifumarat] | ~80 | -79.3 | deutliche | deutliche | Verminderung des intraokularen Druckes (normotensiven Kaninchen; concentration about 20 nM): deutliche Verminderung; Herzfrequenz [2]: herabsetzen; mittlerer arterieller Druck [2]: ununterbrochene Verringerung |
| C#CCOc1ccccc1OCC(O)CN[C@H]1CC[C@H](N2CCNC2=O)CC1 (mixture of isomers) [Beispiel 3c] | ~4 | -30.0 |  |  |  |
| O=C1NCCN1[C@H]1CC[C@@H](NCC(O)COc2ccccc2OCC2CC2)CC1 (mixture of isomers) [Beispiel 3m] |  |  | deutliche | deutliche | Herzfrequenz [2]: herabsetzen; mittlerer arterieller Druck [2]: ununterbrochene Verringerung |
| O=C1NCCN1[C@H]1CC[C@@H](NC[C@H](O)COc2ccccc2OCC2CC2)CC1 [Beispiel 2a, (S)-cis-1-(4-[3-(o-Cyclopropylmethoxyphenoxy)-2-hydroxypropylamino]-cyclohexyl)-2-imidazolidinon-hemifumarat] | ~5 |  | deutliche | deutliche | Verminderung des intraokularen Druckes (normotensiven Kaninchen; concentration about 6,4 nM): deutliche Verminderung; Abnahme des Bludrucks ([3]; 30 mg/kg p.o. once daily for 2 days): -75.5 mm Hg |
| COc1ccccc1OCC(O)CN[C@H]1CC[C@@H](N2CCNC2=O)CC1 (stereo partly drawn) [Beispiel 3a] |  | -39.3 |  |  |  |
| C#CCOc1cccc(OCC(O)CN[C@H]2CC[C@@H](N3CCNC3=O)CC2)c1 (stereo partly drawn) [Beispiel 3d] |  | -52.3 |  |  |  |
| N#Cc1ccccc1OCC(O)CN[C@H]1CC[C@@H](N2CCNC2=O)CC1 (stereo partly drawn) [Beispiel 3f] |  | -11.0 |  |  |  |
| N#Cc1ccccc1OCC(O)CN[C@H]1CC[C@H](N2CCNC2=O)CC1 (stereo partly drawn) [Beispiel 3g] |  | -33.0 |  |  |  |
| O=C1NCCN1[C@H]1CC[C@@H](NCC(O)COc2ccccc2-n2cccc2)CC1 (stereo partly drawn) [Beispiel 3h] |  | -68.0 |  |  |  |
| COCCc1ccc(OCC(O)CN[C@H]2CC[C@@H](N3CCNC3=O)CC2)cc1 (stereo partly drawn) [Beispiel 3k] |  | -17.6 |  |  |  |
